Experimental data taken from patent US8962530B2, “Inflammatory bowel disease therapies” (Regents of the University of Colorado, priority 2007, dated 2015).

How the values were obtained:
TNBS-induced colitis = experiment: Weight loss in TNBS-colitis model; assay type: in vivo; details: TNBS-colitis mice; for initial body weight loss: compared to vehicle-control treated TNBS-colitis animals; for average body weight (of initial body weight) at day 3: vehicle-treated approximately 92%
Description: The effectiveness of compounds and methods of the present invention on intestinal barrier protection and treatment of inflammatory bowel disease (IBD) in TNBS (2,4,6-trinitrobenzene sulfonic acid)-induced colitis, an established animal model of inflammatory bowel disease, was examined. TNBS-induced colitis was induced in mice using a modification of techniques previously described. (See Morris et al (1989) Gastroenterology 96:795-803; Boirivant et al (1998) J Exp Med 188:1929-1939; Karhausen et al (2004) J Clin Invest 114:1098-1106.) Mice were shaved on the abdomen (causing total depletion of hair and microlesions) and were then sensitized to subsequent treatment by epicutaneous application of 1% TNBS (Sigma-Aldrich) in 100% ethanol on day minus 7. Seven days later, on day 0, animals were sedated with a 2.5% Tribromoethanol solution in phosphate-buffered saline (14 μl/g body weight), followed by intrarectal administration of a 2.5% TNBS solution in 50% ethanol (5 μl/g body weight). Administration of the 2.5% TNBS solution was carried out using an epidural catheter ([…] Plus Epidural Catheter, Arrow International), which was inserted approximately 6 cm ab ano followed by release of the TNBS solution. To ensure the continuance of the TNBS solution in the colon, mice were suspended in a vertical position for at least 5 minutes following administration. Vehicle control animals received a corresponding volume of 50% ethanol solution alone. Unless otherwise indicated, compounds of the invention were administered to animals intraperitoneally (i.p.) as a solution. Animals were dosed with compound (40 mg/kg/day or 20 mg/kg/day) on day minus 1, day 0, and day 1, or exclusively on day 0 and day 1, by i.p. injection. On day 0, TNBS treatment was performed on animals 4 hours after injection of compound. The effect of methods and compounds of the present invention on weight loss associated with inflammatory bowel disease was studied using an established animal model of colitis (described above in Example 1). Monitoring weight loss is a reliable method to assess TNBS-colitis severity in this animal model, as previously described. (See Neurath et al (2000) Int Rev Immunol 19:51-62.) Animals were administered Compound A (20 mg/kg or 40 mg/kg, i.p.) or vehicle control on day minus 1, day 0, and day 1. TNBS-colitis was induced in mice on day 0, as described above in Example 1. Body weight of the mice was monitored following induction of TNBS-colitis. […] Animal body weight was monitored each day for 3 days.

TNFα mRNA = experiment: TNFα expression in colonic mucosal scrapings by real-time PCR, TNBS-colitis model; assay type: in vivo; details: TNBS-colitis mice; 40 mg/kg i.p. on day minus 1, day 0, day 1; day three; compared to non-treated TNBS-colitis mice; p<0.01
Description: The effectiveness of compounds and methods of the present invention on intestinal barrier protection and treatment of inflammatory bowel disease (IBD) in TNBS (2,4,6-trinitrobenzene sulfonic acid)-induced colitis, an established animal model of inflammatory bowel disease, was examined. TNBS-induced colitis was induced in mice using a modification of techniques previously described. (See Morris et al (1989) Gastroenterology 96:795-803; Boirivant et al (1998) J Exp Med 188:1929-1939; Karhausen et al (2004) J Clin Invest 114:1098-1106.)
Mice were shaved on the abdomen (causing total depletion of hair and microlesions) and were then sensitized to subsequent treatment by epicutaneous application of 1% TNBS (Sigma-Aldrich) in 100% ethanol on day minus 7. Seven days later, on day 0, animals were sedated with a 2.5% Tribromoethanol solution in phosphate-buffered saline (14 μl/g body weight), followed by intrarectal administration of a 2.5% TNBS solution in 50% ethanol (5 μl/g body weight). […]
Amplification cSycle parameters were as follows: 3 minutes at 95° C.; 40 cycles of 45 seconds at 95° C., 30 seconds at 58° C., 30 seconds at 72° C.; followed by repetitive melting cycles to establish amplification product specificity. Comparison of gene expression in a semi-quantitative manner was performed based on the mathematical model of Pfaffl. […]

[1] = 20 mg/kg i.p. on day minus 1, day 0, day 1
[2] = 40 mg/kg i.p. on day minus 1, day 0, day 1

## O=C(O)CNC(=O)c1ncc2cc(Sc3ccccc3)ccc2c1O [Compound A, [(4-Hydroxy-7-phenylsulfanyl-isoquinoline-3-carbonyl)-amino]-acetic acid]
TNBS-induced colitis; [1]
  initial body weight loss: reduction in the extent of initial body weight loss
  average body weight (of initial body weight) at day 3: approximately 95%
TNBS-induced colitis; 20 mg/kg or 40 mg/kg i.p. on day minus 1, day 0, day 1, compared to vehicle/control-treated TNBS-colitis animals
  body weight gain (recovery from weight loss) by day 3: greater increase in body weight gain
TNBS-induced colitis; [2]
  initial body weight loss: reduction in the extent of initial body weight loss
  average body weight (of initial body weight) at day 3: ~97%
TNFα mRNA
  TNFα mRNA levels in colonic mucosal scrapings: significant decrease
